One data set concerns HBV. Briefly: HBV inhibitory activity: HBV DNA in the culture medium of HepG2.2.15 cells by q-PCR. The class given is cell-based. Particulars: HepG2.2.15 cells, 6 days of compound treatment, HBV DNA in culture medium by q-PCR, highest concentration 10 μM; read-out: EC50. The gist of the method:
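Supernatant HBV DNA quantified by q-PCR after a 6-day compound exposure, with one mid-course medium change, of HepG2.2.15 cells (stably integrated HBV; 40,000 per well, 2% FBS). Eight-point 3-fold series topped at 10 μM for antiviral EC50; separate plates of 5,000 cells per well with 100 μM top give CC50.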

For the next data set, the system named is HepG2.2.15 cells. As to the kind of experiment: Cytotoxicity determination in HepG2.2.15 cells (CCK-8). Particulars: 6 days of compound treatment, CCK-8, highest concentration 100 μM. The class given is cell-based. The gist of the method: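 CC50 is from CCK-8 absorbance (450 nm, 630 nm reference) after 2.5 h with reagent. Before that, compounds were applied for six days, top concentration 100 μM, eight threefold dilutions, one mid-course medium change, to stably HBV-integrated HepG2.2.15 cells plated at 5,000/well in 2% FBS.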

Each structure is given as a SMILES string.

For the compound `COC(=O)C1=C(C2CCN(S(=O)(=O)[C@H]3C[C@](C)(C(=O)O)C3)CC2)NC(c2nccs2)=NC1c1cccc(F)c1Cl` (stereo partly drawn) [Compound 274A, (trans)-3-((4-(−6-(2-Chloro-3-fluorophenyl)-5-(methoxycarbonyl)-2-(thiazol-2-yl)-3,6-dihydropyrimidin-4-yl)piperidin-1-yl)sulfonyl)-1-methylcyclobutanecarboxylic Acid], in the data set with HBV, the EC50 stood at 0.042 µM. In the data set with HepG2.2.15 cells, the CC50 was found to be 31.4 µM.

`COC(=O)C1=C(C2CCN(S(=O)(=O)C3CC(C)(C(=O)O)C3)CC2)NC(c2nccs2)=NC1c1cccc(F)c1Br` (stereo not drawn) [Compound 278C, (trans)-3-((4-(6-(2-bromo-3-fluorophenyl)-5-(methoxycarbonyl)-2-(thiazol-2-yl)-3,6-dihydropyrimidin-4-yl)piperidin-1-yl)sulfonyl)-1-methylcyclobutanecarboxylic Acid]: in the data set with HBV, the EC50 worked out at 0.045 µM. Besides, the 50% cytotoxic concentration (CC50) in the data set on HepG2.2.15 cells is 18.9 µM.

`COC(=O)C1=C([C@H]2CC[C@H](NS(C)(=O)=O)CC2)NC(c2ncc(F)cc2F)=NC1c1ccc(F)c(F)c1Cl` (some centres unmarked) [Compound 298B]: the EC50 in the data set on HBV worked out at 0.017 µM. In the data set with HepG2.2.15 cells, this compound had a CC50 of 13.2 µM.

With `COC(=O)C1=C(C2CCN(S(N)(=O)=O)CC2)NC(c2nccs2)=NC1c1ccc(F)c(F)c1Cl` (centres unmarked) [Compound 416B], the EC50 with HBV came out at 0.006 µM. In the data set on HepG2.2.15 cells, this compound returned a CC50 of 13.5 µM.

For the compound `COC(=O)C1=C(C2CCN(S(=O)(=O)C3CC(C)(C(=O)O)C3)CC2)NC(c2nccs2)=NC1c1ccc(F)cc1C` (stereo not drawn) [Compound 447C, (trans)-3-((4-(6-(4-Fluoro-2-methylphenyl)-5-(methoxycarbonyl)-2-(thiazol-2-yl)-3,6-dihydropyrimidin-4-yl)piperidin-1-yl)sulfonyl)-1-methylcyclobutanecarboxylic Acid], the EC50 in the data set on HBV came to 0.08 µM. The compound also displayed a CC50 in the data set on HepG2.2.15 cells of 48.2 µM.

Take `CCOC(=O)C1=C(C2CCN(S(=O)(=O)CC3CC(C(=O)O)C3)CC2)NC(c2nccs2)=NC1c1ccc(F)c(F)c1Cl` (centres unmarked) [Compound 480Y, 3-(((4-(6-(2-Chloro-3,4-difluorophenyl)-5-(ethoxycarbonyl)-2-(thiazol-2-yl)-3,6-dihydropyrimidin-4-yl)piperidin-1-yl)sulfonyl)methyl)cyclobutanecarboxylic Acid]: the EC50 with HBV was found to be 0.011 µM. Also, the midpoint of cytotoxicity with HepG2.2.15 cells, the CC50, lay at 10.2 µM.

As to `CCOC(=O)C1=C(C2CCN(S(=O)(=O)C3CC(CC(=O)O)C3)CC2)NC(c2nccs2)=NC1c1ccc(F)c(F)c1Cl` (centres unmarked) [Compound 482B, 2-(3-((4-(6-(2-Chloro-3,4-difluorophenyl)-5-(ethoxycarbonyl)-2-(thiazol-2-yl)-3,6-dihydropyrimidin-4-yl)piperidin-1-yl)sulfonyl)cyclobutyl)acetic Acid], the EC50 in the data set on HBV was 0.011 µM. In the data set with HepG2.2.15 cells, this compound registered a CC50 of 11.3 µM.

The record behind these values is US11639350B2, “Heteroaryldihydropyrimidine derivatives and methods of treating hepatitis B infections” (Janssen Pharmaceutica NV, priority 2018, dated 2023).
